Reference: ChEMBL document CHEMBL3046483, “Novel 2'-hydroxylfurylchalcones: synthesis and biological activity” (2010)
Calls of active or inactive are those of the source. No cut-off for these calls is given here.

Legend:
Pyricularia grisea = assay: Antifungal activity against Magnaporthe grisea assessed as rice blast control measured after 1 day; type: functional, organism-based
Dinebra chinensis [1] = assay: Herbicidal activity against Dinebra chinensis assessed as inhibitory rate of fresh weight gain at 7.5 g/hm'2 relative to control; type: functional
Cucumis sativus [2] = assay: Herbicidal activity against Cucumis sativus (cucumber) assessed as inhibitory rate of fresh weight gain at 7.5 g/hm'2 relative to control; type: functional
Amaranthus tricolor [3] = assay: Herbicidal activity against Amaranthus tricolor assessed as inhibitory rate of fresh weight gain at 7.5 g/hm'2 relative to control; type: functional
Sorghum bicolor [4] = assay: Herbicidal activity against Sorghum bicolor assessed as inhibitory rate of seedling height at 7.5 g/hm'2 relative to control; type: functional
[5] = tested on: Brassica rapa subsp. oleifera; assay: Herbicidal activity against Brassica rapa subsp. oleifera assessed as inhibitory rate of seedling height at 7.5 g/hm'2 relative to control; type: functional
Triticum aestivum [6] = assay: Herbicidal activity against Triticum aestivum (wheat) assessed as inhibitory rate of fresh weight gain at 7.5 g/hm'2 relative to control; type: functional
Sorghum bicolor [7] = assay: Herbicidal activity against Sorghum bicolor assessed as inhibitory rate of fresh weight gain at 7.5 g/hm'2 relative to control; type: functional
Cucumis sativus [8] = assay: Herbicidal activity against Cucumis sativus (cucumber) assessed as inhibitory rate of seedling height at 7.5 g/hm'2 relative to control; type: functional
Dinebra chinensis [9] = assay: Herbicidal activity against Dinebra chinensis assessed as inhibitory rate of seedling height at 7.5 g/hm'2 relative to control; type: functional
Triticum aestivum [10] = assay: Herbicidal activity against Triticum aestivum (wheat) assessed as inhibitory rate of seedling height at 7.5 g/hm'2 relative to control; type: functional
[11] = tested on: Pseudoperonospora cubensis; assay: Antifungal activity against Pseudoperonospora cubensis assessed as cucumber downy mildew control measured after 1 day; type: functional, organism-based
Botrytis cinerea = assay: Antifungal activity against Botryotinia fuckeliana assessed as cucumber grey mould control measured after 1 day; type: functional, organism-based
Amaranthus tricolor [12] = assay: Herbicidal activity against Amaranthus tricolor assessed as inhibitory rate of seedling height at 7.5 g/hm'2 relative to control; type: functional
[13] = tested on: Golovinomyces cichoracearum; assay: Antifungal activity against Golovinomyces cichoracearum assessed as cucumber powdery mildew control measured after 1 day; type: functional; design: concentration or dose not given beside the values
[14] = tested on: Brassica rapa subsp. oleifera; assay: Herbicidal activity against Brassica rapa subsp. oleifera assessed as inhibitory rate of fresh weight gain at 7.5 g/hm'2 relative to control; type: functional

O=C(/C=C/c1ccco1)c1occc1O
Activity (Pyricularia grisea): inactive | inhibition (INH) (Dinebra chinensis [1]): 56.1% | inhibition (INH) (Cucumis sativus [2]): 49.7% | inhibition (INH) (Amaranthus tricolor [3]): 69.6% | inhibition (INH) (Sorghum bicolor [4]): 4% | inhibition (INH) [5]: 38.1% | inhibition (INH) (Triticum aestivum [6]): 49.6% | inhibition (INH) (Sorghum bicolor [7]): 12.4% | inhibition (INH) (Cucumis sativus [8]): 36.1% | inhibition (INH) (Dinebra chinensis [9]): -3.2% | inhibition (INH) (Triticum aestivum [10]): 24.4% | Activity [11]: inactive | Activity (Botrytis cinerea): inactive | inhibition (INH) (Amaranthus tricolor [12]): 12.5% | Activity [13]: <10% | inhibition (INH) [14]: 82.1%

O=C(/C=C/c1cccc([N+](=O)[O-])c1)c1occc1O
Activity (Pyricularia grisea): inactive | inhibition (INH) (Dinebra chinensis [1]): 63.1% | inhibition (INH) (Cucumis sativus [2]): 40.6% | inhibition (INH) (Amaranthus tricolor [3]): 74.8% | inhibition (INH) [5]: 52.4% | inhibition (INH) (Triticum aestivum [6]): 52.5% | inhibition (INH) (Cucumis sativus [8]): 46.8% | inhibition (INH) (Dinebra chinensis [9]): 1.4% | inhibition (INH) (Triticum aestivum [10]): 33.9% | Activity [11]: inactive | Activity (Botrytis cinerea): inactive | inhibition (INH) (Amaranthus tricolor [12]): 25% | Activity [13]: <10% | inhibition (INH) [14]: 85.9%

Cc1ccc(/C=C/C(=O)c2occc2O)cc1
Activity (Pyricularia grisea): inactive | inhibition (INH) (Dinebra chinensis [1]): 47.8% | inhibition (INH) (Cucumis sativus [2]): 39.3% | inhibition (INH) (Amaranthus tricolor [3]): 72.2% | inhibition (INH) (Sorghum bicolor [4]): -3.8% | inhibition (INH) [5]: 33.3% | inhibition (INH) (Triticum aestivum [6]): 53% | inhibition (INH) (Sorghum bicolor [7]): 32.3% | inhibition (INH) (Cucumis sativus [8]): 32.7% | inhibition (INH) (Dinebra chinensis [9]): -10.1% | inhibition (INH) (Triticum aestivum [10]): 28.1% | Activity [11]: inactive | Activity (Botrytis cinerea): inactive | inhibition (INH) (Amaranthus tricolor [12]): 12.5% | Activity [13]: <10% | inhibition (INH) [14]: 45.9%

O=C(/C=C/c1ccc(Cl)cc1Cl)c1occc1O
Activity (Pyricularia grisea): inactive | inhibition (INH) (Dinebra chinensis [1]): 57.1% | inhibition (INH) (Cucumis sativus [2]): 37.3% | inhibition (INH) (Amaranthus tricolor [3]): 69.6% | inhibition (INH) [5]: 42.9% | inhibition (INH) (Triticum aestivum [6]): 63.4% | inhibition (INH) (Cucumis sativus [8]): 35.1% | inhibition (INH) (Dinebra chinensis [9]): -0.7% | inhibition (INH) (Triticum aestivum [10]): 39.5% | Activity [11]: inactive | Activity (Botrytis cinerea): inactive | inhibition (INH) (Amaranthus tricolor [12]): 18.8% | Activity [13]: <10% | inhibition (INH) [14]: 87.2%

N#Cc1cccc(/C=C/C(=O)c2occc2O)c1
Activity (Pyricularia grisea): inactive | inhibition (INH) (Dinebra chinensis [1]): 12.4% | inhibition (INH) (Cucumis sativus [2]): 13.7% | inhibition (INH) (Amaranthus tricolor [3]): 31.7% | inhibition (INH) (Sorghum bicolor [4]): 34% | inhibition (INH) [5]: 14.3% | inhibition (INH) (Triticum aestivum [6]): 36.1% | inhibition (INH) (Sorghum bicolor [7]): 24% | inhibition (INH) (Cucumis sativus [8]): 33.3% | inhibition (INH) (Dinebra chinensis [9]): -12.3% | inhibition (INH) (Triticum aestivum [10]): 30.5% | Activity [11]: inactive | Activity (Botrytis cinerea): inactive | inhibition (INH) (Amaranthus tricolor [12]): 37.5% | Activity [13]: <10% | inhibition (INH) [14]: -5.9%

O=C(/C=C/c1ccccc1)c1occc1O
Activity (Pyricularia grisea): inactive | inhibition (INH) (Dinebra chinensis [1]): 31.3% | inhibition (INH) (Cucumis sativus [2]): 1.3% | inhibition (INH) (Amaranthus tricolor [3]): 32.6% | inhibition (INH) (Sorghum bicolor [4]): 55.3% | inhibition (INH) [5]: 38.1% | inhibition (INH) (Triticum aestivum [6]): 46.2% | inhibition (INH) (Sorghum bicolor [7]): 36% | inhibition (INH) (Cucumis sativus [8]): 33.7% | inhibition (INH) (Dinebra chinensis [9]): -4.4% | inhibition (INH) (Triticum aestivum [10]): 37.2% | Activity [11]: inactive | Activity (Botrytis cinerea): inactive | inhibition (INH) (Amaranthus tricolor [12]): 18.8% | Activity [13]: <10% | inhibition (INH) [14]: 60.3%

O=C(/C=C/c1ccc(Cl)cc1)c1occc1O
Activity (Pyricularia grisea): inactive | inhibition (INH) (Dinebra chinensis [1]): 52.6% | inhibition (INH) (Cucumis sativus [2]): 68.2% | inhibition (INH) (Amaranthus tricolor [3]): 81.2% | inhibition (INH) [5]: 52.4% | inhibition (INH) (Triticum aestivum [6]): 64.6% | inhibition (INH) (Cucumis sativus [8]): 36.5% | inhibition (INH) (Dinebra chinensis [9]): -3.9% | inhibition (INH) (Triticum aestivum [10]): 41.8% | Activity [11]: inactive | Activity (Botrytis cinerea): inactive | inhibition (INH) (Amaranthus tricolor [12]): 37.5% | Activity [13]: <10% | inhibition (INH) [14]: 83.5%

O=C(/C=C/c1ccc(Br)cc1)c1occc1O
Activity (Pyricularia grisea): inactive | inhibition (INH) (Dinebra chinensis [1]): 66.7% | inhibition (INH) (Cucumis sativus [2]): 34.5% | inhibition (INH) (Amaranthus tricolor [3]): 71.7% | inhibition (INH) [5]: 52.4% | inhibition (INH) (Triticum aestivum [6]): 64.2% | inhibition (INH) (Cucumis sativus [8]): 40.5% | inhibition (INH) (Dinebra chinensis [9]): 4.2% | inhibition (INH) (Triticum aestivum [10]): 42.5% | Activity [11]: inactive | Activity (Botrytis cinerea): inactive | inhibition (INH) (Amaranthus tricolor [12]): 37.5% | Activity [13]: <10% | inhibition (INH) [14]: 66.7%

O=C(/C=C/c1ccccn1)c1occc1O
Activity (Pyricularia grisea): inactive | inhibition (INH) (Dinebra chinensis [1]): 37.4% | inhibition (INH) (Cucumis sativus [2]): 33.1% | inhibition (INH) (Amaranthus tricolor [3]): 23.9% | inhibition (INH) (Sorghum bicolor [4]): 13.6% | inhibition (INH) [5]: 52.4% | inhibition (INH) (Triticum aestivum [6]): 40.9% | inhibition (INH) (Sorghum bicolor [7]): 11.3% | inhibition (INH) (Cucumis sativus [8]): 31% | inhibition (INH) (Dinebra chinensis [9]): 6.7% | inhibition (INH) (Triticum aestivum [10]): 37% | Activity [11]: inactive | Activity (Botrytis cinerea): inactive | inhibition (INH) (Amaranthus tricolor [12]): 18.8% | Activity [13]: <10% | inhibition (INH) [14]: 31.8%

O=C(/C=C/c1ccc2ccccc2c1)c1occc1O
Activity (Pyricularia grisea): inactive | inhibition (INH) (Dinebra chinensis [1]): 55.9% | inhibition (INH) (Cucumis sativus [2]): 44% | inhibition (INH) (Amaranthus tricolor [3]): 90.6% | inhibition (INH) [5]: 52.4% | inhibition (INH) (Triticum aestivum [6]): 45.4% | inhibition (INH) (Cucumis sativus [8]): 41.3% | inhibition (INH) (Dinebra chinensis [9]): -7.4% | inhibition (INH) (Triticum aestivum [10]): 27.1% | Activity [11]: inactive | Activity (Botrytis cinerea): inactive | inhibition (INH) (Amaranthus tricolor [12]): 37.5% | Activity [13]: <10% | inhibition (INH) [14]: 72.9%

O=C(/C=C/c1ccc(F)cc1)c1occc1O
Activity (Pyricularia grisea): inactive | inhibition (INH) (Dinebra chinensis [1]): 19% | inhibition (INH) (Cucumis sativus [2]): 17.5% | inhibition (INH) (Amaranthus tricolor [3]): 24.3% | inhibition (INH) [5]: 19% | inhibition (INH) (Triticum aestivum [6]): 40.6% | inhibition (INH) (Cucumis sativus [8]): 56.8% | inhibition (INH) (Dinebra chinensis [9]): 3.5% | inhibition (INH) (Triticum aestivum [10]): 37% | Activity [11]: inactive | Activity (Botrytis cinerea): inactive | inhibition (INH) (Amaranthus tricolor [12]): 6.3% | Activity [13]: <10% | inhibition (INH) [14]: 15.1%

COc1ccc(/C=C/C(=O)c2occc2O)cc1
Activity (Pyricularia grisea): inactive | inhibition (INH) (Dinebra chinensis [1]): 60.4% | inhibition (INH) (Cucumis sativus [2]): 35.3% | inhibition (INH) (Amaranthus tricolor [3]): 54.8% | inhibition (INH) [5]: 38.1% | inhibition (INH) (Triticum aestivum [6]): 53.3% | inhibition (INH) (Cucumis sativus [8]): 33.3% | inhibition (INH) (Dinebra chinensis [9]): 2.1% | inhibition (INH) (Triticum aestivum [10]): 35.4% | Activity [11]: inactive | Activity (Botrytis cinerea): inactive | inhibition (INH) (Amaranthus tricolor [12]): 37.5% | Activity [13]: <10% | inhibition (INH) [14]: 72.3%

COC(=O)[C@@H](C)Oc1ccc(Oc2ncc(C(F)(F)F)cc2Cl)cc1 [HALOXYFOP-P-METHYL]
inhibition (INH) (Dinebra chinensis [1]): 100% | inhibition (INH) (Cucumis sativus [2]): 31.5% | inhibition (INH) (Amaranthus tricolor [3]): 21.6% | inhibition (INH) (Sorghum bicolor [4]): 100% | inhibition (INH) [5]: 44.4% | inhibition (INH) (Triticum aestivum [6]): 100% | inhibition (INH) (Sorghum bicolor [7]): 100% | inhibition (INH) (Cucumis sativus [8]): 42.1% | inhibition (INH) (Dinebra chinensis [9]): 100% | inhibition (INH) (Triticum aestivum [10]): 100% | inhibition (INH) (Amaranthus tricolor [12]): 2.1% | inhibition (INH) [14]: 17.2%
